Patent publication US20250134889A1, “TARGETING IRE1 KINASE AND FMRP FOR PROPHYLAXIS, MANAGEMENT AND TREATMENT OF ATHEROSCLEROSIS” (CEDARS-SINAI MEDICAL CENTER, priority 2022, published 2025)

How the values were obtained:
IRE1 kinase activity = assay: ER stress-induced IRE1 and FMRP phosphorylation in transfected MEFs (western blot); assay type: cell-based, mouse; conditions: AMG-18 25 μM 1 hour pre-treatment, TG 600 nM 4 hours
Method: FIGS. 1A-1K depict FMRP is a new inositol-requiring enzyme-1 (IRE1) kinase substrate. A representative blot is shown from at least n=3 independent experiments. Data are mean±SEM. Unpaired 1-test with Welch's correction or paired 1-test. * P≤0.05, ** P≤0.01, *** P≤0.001. • 1A. STING analysis of published IRE1 interactome proteins in relation to FMRP (Acosta-Alvear et al., 2018). • 1B. HEK293T cells were co-transfected with IRE1 and FMRP plasmids and stimulated with TG (600 nM) or TM (1 mg/ml) for 2 hours. Protein lysates were immunoprecipitated (IP) with anti-IRE1 or IgG (control) antibodies and analyzed by Western blotting using specific antibodies for FMRP and IRE1 (n=3). • 1C. RAW 264.7 mouse macrophages were treated with either oxLDL (50 μg/ml) or TG (300 nM) for 6 hours. Protein lysates were treated with λ Phosphatase (PPase) for 30 minutes and analyzed by western blotting using specific antibodies for pFMRP, FMRP, pIRE1, IRE1 and β-Actin. pFMRP/FMRP fold induction is depicted above the blots (n=6). • 1D. […] Protein lysates were analyzed by western blotting using specific antibodies for pFMRP, FMRP, pIRE1, IRE1 and β-Actin. pFMRP/FMRP-fold induction is depicted above the blots (n=5). • 1E. […] Protein lysates were analyzed by western blotting using specific antibodies for pFMRP, FMRP, pIRE1, IRE1 and β-Actin. pFMRP/FMRP fold induction is depicted above the blots (n=4). • 1F. […]

[1] = target: T1, human IRE1-kinase/RNase domains (amino acids 468-977) (Homo sapiens, UniProt O75460); assay: Kinase reaction with purified recombinant IRE1 and FMRP; assay type: biochemical; conditions: purified proteins, ATP-γ-S
T1 construct: recombinant human IRE1-kinase/RNase domains (amino acids 468-977); purchased Biotech (so in the source) E31-11G
T1 sequence (O75460 468-977): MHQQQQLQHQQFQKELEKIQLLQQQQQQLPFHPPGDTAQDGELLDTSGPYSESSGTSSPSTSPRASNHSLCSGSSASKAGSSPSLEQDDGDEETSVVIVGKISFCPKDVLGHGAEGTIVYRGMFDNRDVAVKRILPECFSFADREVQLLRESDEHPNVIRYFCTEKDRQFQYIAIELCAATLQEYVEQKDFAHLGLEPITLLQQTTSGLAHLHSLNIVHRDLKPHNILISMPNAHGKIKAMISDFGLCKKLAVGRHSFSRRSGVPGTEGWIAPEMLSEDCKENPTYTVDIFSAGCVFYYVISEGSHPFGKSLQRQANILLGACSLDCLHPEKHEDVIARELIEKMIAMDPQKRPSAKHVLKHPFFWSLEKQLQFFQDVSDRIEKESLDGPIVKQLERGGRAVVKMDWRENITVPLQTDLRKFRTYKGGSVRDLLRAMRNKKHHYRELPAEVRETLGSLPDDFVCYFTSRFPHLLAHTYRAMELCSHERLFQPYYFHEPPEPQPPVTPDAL

`Cc1ccc2c(NS(=O)(=O)c3ccccc3Cl)cccc2c1Oc1ncccc1-c1ccnc(N[C@H]2CCCNC2)n1` [AMG-18] was tested. Which “FMRP phosphorylation (pFMRP/FMRP)” value (IRE1 kinase activity) did it give?
The value was “clearly reducing”.

And the IRE1 phosphorylation (IRE1 kinase activity)?
The IRE1 phosphorylation was “prevented”.

What about the “FMRP phosphorylation in kinase reaction” value [1] of the same molecule?
The value was “AMG-18-sensitive”.

What about the “IRE1 phosphorylation in kinase reaction” value [1] of the same molecule?
The value was “AMG-18-sensitive”.
